Values joined by “and” are separate entries in the source; they are usually repeats but may differ in a detail not shown here. Identical values can stand only once. Like-named read-outs stand apart in the source and are kept apart here.
Columns and labels:
Format in all cases: cell-based
[1] = test system: kanamycin resistant S. aureus; test: Checkerboard titration assay for synergy of honeybee venom with antibiotics (OD660 growth curves)
S. aureus = test: Equivalent doses of melittin fraction and whole honeybee venom with and without kanamycin (growth curves); details: doses of what is present: KANA = 2.5, MEL = 1.6, HBV = 2 (ug/ml)
Pseudomonas aeruginosa = details: Venom 40 ug/ml; for optical density, AVERAGE: AVERAGE line; for optical density: single replicates
Staphylococcus aureus = details: Venom 4 ug/ml; for optical density, AVERAGE: AVERAGE line; for optical density: single replicates
[2] = Relative activity of analogues with respect to native melittin
Description: Also some of then analogues mentioned above were tested to determine their relative activities with respect to native melittin. The relative activity is calculated as follows: [formula]

E. coli G1108E = test: Checkerboard titration synergy assay of melittin analogues with polymyxin B; details: 5 ug/ml peptide with 6 units/ml polymyxin B; delay time until mid-log phase (FIG. 26)
[3] = 0 hours after innoculation, doses of what is present: Rifampicin 10 ug/ml
[4] = 0 hours after innoculation, doses of what is present: Rifampicin 20 ug/ml
[5] = 2 hours after innoculation, doses of what is present: Rifampicin 10 ug/ml
[6] = 2 hours after innoculation, doses of what is present: Rifampicin 20 ug/ml
[7] = 4 hours after innoculation, doses of what is present: Rifampicin 10 ug/ml
[8] = 4 hours after innoculation, doses of what is present: Rifampicin 20 ug/ml
[9] = 6 hours after innoculation, doses of what is present: Rifampicin 10 ug/ml
[10] = 6 hours after innoculation, doses of what is present: Rifampicin 20 ug/ml
[11] = 8 hours after innoculation, doses of what is present: Rifampicin 10 ug/ml
[12] = 8 hours after innoculation, doses of what is present: Rifampicin 20 ug/ml
[13] = 12 hours after innoculation, doses of what is present: Rifampicin 10 ug/ml
[14] = 12 hours after innoculation, doses of what is present: Rifampicin 20 ug/ml
[15] = 0 hours after innoculation, doses of what is present: Rifampicin .001 ug/ml
[16] = 0 hours after innoculation, doses of what is present: Rifampicin .01 ug/ml
[17] = 2 hours after innoculation, doses of what is present: Rifampicin .001 ug/ml
[18] = 2 hours after innoculation, doses of what is present: Rifampicin .01 ug/ml
[19] = 4 hours after innoculation, doses of what is present: Rifampicin .001 ug/ml
[20] = 4 hours after innoculation, doses of what is present: Rifampicin .01 ug/ml
[21] = 6 hours after innoculation, doses of what is present: Rifampicin .001 ug/ml
[22] = 6 hours after innoculation, doses of what is present: Rifampicin .01 ug/ml
[23] = 8 hours after innoculation, doses of what is present: Rifampicin .001 ug/ml
[24] = 8 hours after innoculation, doses of what is present: Rifampicin .01 ug/ml
[25] = 12 hours after innoculation, doses of what is present: Rifampicin .001 ug/ml
[26] = 12 hours after innoculation, doses of what is present: Rifampicin .01 ug/ml

For `NC[C@H]1O[C@H](O[C@H]2[C@H](O)[C@@H](O[C@H]3O[C@H](CO)[C@@H](O)[C@H](N)[C@H]3O)[C@H](N)C[C@@H]2N)[C@H](O)[C@@H](O)[C@@H]1O` [Kanamycin], the “MEAN A660” value ([1]; KANA = 5, HBV = 0, T0) was 0.016, the “MEAN A660” value ([1]; KANA = 5, HBV = 0, T2) was 0.047 and the “MEAN A660” value ([1]; KANA = 5, HBV = 0, T4) was 0.204. The “MEAN A660” value ([1]; KANA = 5, HBV = 0, T6) was 0.282, the “MEAN A660” value ([1]; KANA = 5, HBV = 0, T8) was 0.351 and the “MEAN A660” value ([1]; KANA = 5, HBV = 0, T12) was 0.751. For the same compound, the “MEAN A660” value ([1]; KANA = 5, HBV = 0, T24) was 1.152, the “MEAN A660” value ([1]; KANA = 10, HBV = 0, T0) was 0.016 and the “MEAN A660” value ([1]; KANA = 10, HBV = 0, T2) was 0.047. For the same compound, the “MEAN A660” value ([1]; KANA = 10, HBV = 0, T4) was 0.135, the “MEAN A660” value ([1]; KANA = 10, HBV = 0, T6) was 0.172 and the “MEAN A660” value ([1]; KANA = 10, HBV = 0, T8) was 0.200. The “MEAN A660” value ([1]; KANA = 10, HBV = 0, T12) was 0.397, the “MEAN A660” value ([1]; KANA = 10, HBV = 0, T24) was 1.164 and the “MEAN A660” value ([1]; KANA = 20, HBV = 0, T0) was 0.016. For the same compound, the “MEAN A660” value ([1]; KANA = 20, HBV = 0, T2) was 0.047, the “MEAN A660” value ([1]; KANA = 20, HBV = 0, T4) was 0.123 and the “MEAN A660” value ([1]; KANA = 20, HBV = 0, T6) was 0.145. For the same compound, the “MEAN A660” value ([1]; KANA = 20, HBV = 0, T8) was 0.166, the “MEAN A660” value ([1]; KANA = 20, HBV = 0, T12) was 0.220 and the “MEAN A660” value ([1]; KANA = 20, HBV = 0, T24) was 0.975. For the same compound, the “MEAN A660” value ([1]; KANA = 40, HBV = 0, T0) was 0.016, the “MEAN A660” value ([1]; KANA = 40, HBV = 0, T2) was 0.047 and the “MEAN A660” value ([1]; KANA = 40, HBV = 0, T4) was 0.116. For the same compound, the “MEAN A660” value ([1]; KANA = 40, HBV = 0, T6) was 0.146, the “MEAN A660” value ([1]; KANA = 40, HBV = 0, T8) was 0.161 and the “MEAN A660” value ([1]; KANA = 40, HBV = 0, T12) was 0.184. The “MEAN A660” value ([1]; KANA = 40, HBV = 0, T24) was 0.697, the “MEAN A660” value (S. aureus; T0) was 0.021 and the “MEAN A660” value (S. aureus; T2) was 0.080. The “MEAN A660” value (S. aureus; T4) was 0.692, the “MEAN A660” value (S. aureus; T6) was 1.114 and the “MEAN A660” value (S. aureus; T8) was 1.217. For the same compound, the “MEAN A660” value (S. aureus; T12) was 1.265 and the “MEAN A660” value (S. aureus; T24) was 1.330.

For `CO[C@H]1/C=C/O[C@@]2(C)Oc3c(C)c(O)c4c(O)c(c(/C=N/N5CCN(C)CC5)c(O)c4c3C2=O)NC(=O)/C(C)=C\C=C\[C@H](C)[C@H](O)[C@@H](C)[C@@H](O)[C@@H](C)[C@H](OC(C)=O)[C@@H]1C` [Rifampicin], the “optical density, AVERAGE” value (Pseudomonas aeruginosa; [3]) was “.033”, the optical density (Pseudomonas aeruginosa; [3]) was “.033” and the “optical density, AVERAGE” value (Pseudomonas aeruginosa; [4]) was “.033”. The optical density (Pseudomonas aeruginosa; [4]) was “.033”, the “optical density, AVERAGE” value (Pseudomonas aeruginosa; [5]) was “.080” and the optical density (Pseudomonas aeruginosa; [5]) was “.074 and .084 and .082”. The “optical density, AVERAGE” value (Pseudomonas aeruginosa; [6]) was “.057”, the optical density (Pseudomonas aeruginosa; [6]) was “.053 and .056 and .063” and the “optical density, AVERAGE” value (Pseudomonas aeruginosa; [7]) was “.647”. The optical density (Pseudomonas aeruginosa; [7]) was “.630 and .672 and .640”, the “optical density, AVERAGE” value (Pseudomonas aeruginosa; [8]) was “.351” and the optical density (Pseudomonas aeruginosa; [8]) was “.375 and .326 and .380”. For the same compound, the “optical density, AVERAGE” value (Pseudomonas aeruginosa; [9]) was “.837”, the optical density (Pseudomonas aeruginosa; [9]) was “.830 (2×) and .850” and the “optical density, AVERAGE” value (Pseudomonas aeruginosa; [10]) was “.688”. For the same compound, the optical density (Pseudomonas aeruginosa; [10]) was “.660 and .645 and .700”, the “optical density, AVERAGE” value (Pseudomonas aeruginosa; [11]) was “.882” and the optical density (Pseudomonas aeruginosa; [11]) was “.885 and .895 and .865”. For the same compound, the “optical density, AVERAGE” value (Pseudomonas aeruginosa; [12]) was “.737”, the optical density (Pseudomonas aeruginosa; [12]) was “.730 and .720 and .760” and the “optical density, AVERAGE” value (Pseudomonas aeruginosa; [13]) was “.841”. For the same compound, the optical density (Pseudomonas aeruginosa; [13]) was “.842 and .850 and .832”, the “optical density, AVERAGE” value (Pseudomonas aeruginosa; [14]) was “.735” and the optical density (Pseudomonas aeruginosa; [14]) was “.730 (2×) and .745”. The “optical density, AVERAGE” value (Staphylococcus aureus; [15]) was “.046”, the optical density (Staphylococcus aureus; [15]) was “.046” and the “optical density, AVERAGE” value (Staphylococcus aureus; [16]) was “.046”. For the same compound, the optical density (Staphylococcus aureus; [16]) was “.046”, the “optical density, AVERAGE” value (Staphylococcus aureus; [17]) was “.072” and the optical density (Staphylococcus aureus; [17]) was “.081 (2×) and .072”. The “optical density, AVERAGE” value (Staphylococcus aureus; [18]) was “.056”, the optical density (Staphylococcus aureus; [18]) was “.056 and .054 and .058” and the “optical density, AVERAGE” value (Staphylococcus aureus; [19]) was “.807”. The optical density (Staphylococcus aureus; [19]) was “.855 and .765 and .800”, the “optical density, AVERAGE” value (Staphylococcus aureus; [20]) was “.107” and the optical density (Staphylococcus aureus; [20]) was “.140 and .068 and .112”. For the same compound, the “optical density, AVERAGE” value (Staphylococcus aureus; [21]) was 1.17, the optical density (Staphylococcus aureus; [21]) was 1.18 and 1.16 and 1.17 and the “optical density, AVERAGE” value (Staphylococcus aureus; [22]) was “.277”. For the same compound, the optical density (Staphylococcus aureus; [22]) was “.372 and .156 and .304”, the “optical density, AVERAGE” value (Staphylococcus aureus; [23]) was 1.26 and the optical density (Staphylococcus aureus; [23]) was 1.27 and 1.26 (2×). The “optical density, AVERAGE” value (Staphylococcus aureus; [24]) was “.898”, the optical density (Staphylococcus aureus; [24]) was 1.07 and .625 and 1.00 and the “optical density, AVERAGE” value (Staphylococcus aureus; [25]) was 1.34. For the same compound, the optical density (Staphylococcus aureus; [25]) was 1.34, the “optical density, AVERAGE” value (Staphylococcus aureus; [26]) was 1.32 and the optical density (Staphylococcus aureus; [26]) was 1.32 and 1.34 and 1.30.

For “Melittin (1-20) - Arg-Arg-Arg-Arg-Gln-Gln-NH2 [Analogue #5]”, the “Relative Activity” value [2] was 300% and the “relative in vitro activity, place in ascending order” value (from here on “relative in vitro activity, place”) (E. coli G1108E) was 8.

In the case of “Melittin (1-20) - Gly-Gly-Gly-Gly-Gln-Gln-NH2 [Analogue #7]”, the “Relative Activity” value [2] was 20% and the “relative in vitro activity, place” value (E. coli G1108E) was 1.

For “Melittin (1-20) - Lys-Arg-Lys-Arg-Gly-Gly-NH2 [Analogue #4]”, the “relative in vitro activity, place” value (E. coli G1108E) was 7.

With Melittin (1-20) - NH2 [Analogue #1] the “Relative Activity” value [2] was 20%.

For “NPS-Melittin: o-nitrophenyl sulfenyl group attached to the number 19 tryptophan residue of natural melittin”, the “relative in vitro activity, place” value (E. coli G1108E) was 3.

With “Synthetic Melittin: Synthetic melittin purchased from Peninsula Laboratories, Belmont, Calif.” the “relative in vitro activity, place” value (E. coli G1108E) was 5.

— patent publication US20010021697A1, “METHODS AND COMPOSITIONS FOR THE TREATMENT OF MAMMALIAN INFECTIONS EMPLOYING MEDICAMENTS COMPRISING HYMENOPTERA VENOM, PROTEINAGEOUS OR POLYPEPTIDE COMPONENTS THEREOF, OR ANALOGUES OF SUCH PROTEINACEOUS OR POLYPEPTIDE COMPONENTS” (priority 1987, published 2001)
